Source: ChEMBL document CHEMBL4507289, “Data for DCP probe GSM1” (2021)

Tests used:
[1] = biological target: High affinity nerve growth factor receptor (Homo sapiens) (UniProt P04629); settings: Compound concentration 1000.0 nM
[2] = biological target: Homeodomain-interacting protein kinase 1 (Homo sapiens) (UniProt Q86Z02); settings: Compound concentration 1000.0 nM
[3] = system: Hepatocyte growth factor receptor (Homo sapiens), P08581 [Y1235D]; settings: Compound concentration 1000.0 nM
[4] = biological target: Calcium/calmodulin-dependent protein kinase type 1D (Homo sapiens) (UniProt Q8IU85); settings: Compound concentration 1000.0 nM
[5] = biological target: 5-hydroxytryptamine receptor 3A (Homo sapiens) (UniProt P46098); settings: Compound concentration 10.0 uM
[6] = biological target: Ephrin type-A receptor 2 (Homo sapiens) (UniProt P29317); settings: Compound concentration 1000.0 nM
[7] = biological target: Tyrosine-protein kinase Lyn (Homo sapiens) (UniProt P07948); settings: Compound concentration 1000.0 nM
[8] = system: Epidermal growth factor receptor (Homo sapiens), P00533 [G719C]; settings: Compound concentration 1000.0 nM
[9] = system: Leucine-rich repeat serine/threonine-protein kinase 2 (Homo sapiens), Q5S007 [G2019S]; settings: Compound concentration 1000.0 nM
Sequence of Leucine-rich repeat serine/threonine-protein kinase 2 (Homo sapiens), Q5S007 [G2019S] (Q5S007 whole entry G2019S): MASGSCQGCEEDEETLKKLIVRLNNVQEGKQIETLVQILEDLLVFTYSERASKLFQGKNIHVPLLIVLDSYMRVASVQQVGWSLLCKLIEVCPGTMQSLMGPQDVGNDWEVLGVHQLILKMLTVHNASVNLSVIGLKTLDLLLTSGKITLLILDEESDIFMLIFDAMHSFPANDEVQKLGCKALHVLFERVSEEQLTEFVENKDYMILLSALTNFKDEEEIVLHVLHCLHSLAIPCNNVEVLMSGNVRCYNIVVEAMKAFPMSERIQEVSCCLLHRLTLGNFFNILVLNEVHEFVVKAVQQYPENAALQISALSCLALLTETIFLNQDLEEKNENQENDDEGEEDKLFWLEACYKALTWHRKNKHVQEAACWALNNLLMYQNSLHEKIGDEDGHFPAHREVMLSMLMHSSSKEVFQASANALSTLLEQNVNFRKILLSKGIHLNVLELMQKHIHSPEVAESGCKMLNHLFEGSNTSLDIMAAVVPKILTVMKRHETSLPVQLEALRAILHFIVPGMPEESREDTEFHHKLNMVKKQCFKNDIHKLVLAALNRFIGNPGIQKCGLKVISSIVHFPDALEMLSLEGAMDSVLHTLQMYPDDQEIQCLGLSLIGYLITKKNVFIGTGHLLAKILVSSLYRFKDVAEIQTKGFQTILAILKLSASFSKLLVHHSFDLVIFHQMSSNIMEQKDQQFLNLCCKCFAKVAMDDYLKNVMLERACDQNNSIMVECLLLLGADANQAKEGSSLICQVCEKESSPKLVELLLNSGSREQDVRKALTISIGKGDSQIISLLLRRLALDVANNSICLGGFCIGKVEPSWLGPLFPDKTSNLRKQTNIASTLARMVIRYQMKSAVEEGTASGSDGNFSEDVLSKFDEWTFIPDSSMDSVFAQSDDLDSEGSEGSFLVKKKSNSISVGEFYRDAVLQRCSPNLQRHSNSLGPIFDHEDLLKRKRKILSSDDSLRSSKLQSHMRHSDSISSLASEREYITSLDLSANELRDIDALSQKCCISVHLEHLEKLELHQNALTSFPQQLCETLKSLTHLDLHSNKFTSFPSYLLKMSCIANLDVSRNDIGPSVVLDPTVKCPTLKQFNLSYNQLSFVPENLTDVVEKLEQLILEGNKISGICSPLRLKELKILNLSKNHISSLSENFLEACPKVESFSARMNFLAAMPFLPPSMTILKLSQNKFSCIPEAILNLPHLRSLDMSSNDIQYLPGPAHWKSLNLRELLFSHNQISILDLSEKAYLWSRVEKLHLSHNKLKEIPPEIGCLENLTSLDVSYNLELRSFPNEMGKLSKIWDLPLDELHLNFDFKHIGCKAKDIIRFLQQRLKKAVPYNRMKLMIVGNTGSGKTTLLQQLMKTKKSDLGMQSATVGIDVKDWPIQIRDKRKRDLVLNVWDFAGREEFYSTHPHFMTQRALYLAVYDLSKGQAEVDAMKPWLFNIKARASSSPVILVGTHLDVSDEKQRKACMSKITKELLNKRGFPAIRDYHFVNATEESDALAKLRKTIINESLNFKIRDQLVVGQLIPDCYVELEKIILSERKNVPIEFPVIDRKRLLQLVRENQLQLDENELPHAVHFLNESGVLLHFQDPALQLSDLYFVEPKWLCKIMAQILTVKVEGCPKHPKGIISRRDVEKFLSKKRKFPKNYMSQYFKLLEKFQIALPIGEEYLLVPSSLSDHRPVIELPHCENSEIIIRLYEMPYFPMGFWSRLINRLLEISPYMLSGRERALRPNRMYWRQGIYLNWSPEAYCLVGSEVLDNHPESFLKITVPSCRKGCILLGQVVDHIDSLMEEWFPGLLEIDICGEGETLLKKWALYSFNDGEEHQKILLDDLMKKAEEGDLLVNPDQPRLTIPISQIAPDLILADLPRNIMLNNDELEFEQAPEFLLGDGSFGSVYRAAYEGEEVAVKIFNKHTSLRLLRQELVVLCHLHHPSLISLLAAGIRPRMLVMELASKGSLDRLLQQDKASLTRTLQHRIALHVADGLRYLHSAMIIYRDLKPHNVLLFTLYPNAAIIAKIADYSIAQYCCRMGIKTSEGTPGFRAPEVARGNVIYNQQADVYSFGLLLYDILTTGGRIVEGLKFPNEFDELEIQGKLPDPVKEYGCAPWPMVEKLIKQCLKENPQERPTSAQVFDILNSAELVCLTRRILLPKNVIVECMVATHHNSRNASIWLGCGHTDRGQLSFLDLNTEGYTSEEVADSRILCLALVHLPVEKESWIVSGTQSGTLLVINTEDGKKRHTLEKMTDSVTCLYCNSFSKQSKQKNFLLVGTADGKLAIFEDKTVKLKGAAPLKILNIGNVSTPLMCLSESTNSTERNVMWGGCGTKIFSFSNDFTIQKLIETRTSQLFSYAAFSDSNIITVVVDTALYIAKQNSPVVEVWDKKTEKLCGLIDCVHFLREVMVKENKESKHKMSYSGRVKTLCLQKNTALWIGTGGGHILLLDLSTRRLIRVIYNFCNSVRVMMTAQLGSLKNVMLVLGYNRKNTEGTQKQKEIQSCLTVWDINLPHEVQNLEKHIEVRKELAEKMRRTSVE

[10] = biological target: Tyrosine-protein kinase BTK (Homo sapiens) (UniProt Q06187); settings: Compound concentration 1000.0 nM
[11] = biological target: Serine/threonine-protein kinase Nek4 (Homo sapiens) (UniProt P51957); settings: Compound concentration 1000.0 nM
[12] = biological target: Phosphatidylinositol 4-phosphate 3-kinase C2 domain-containing subunit beta (Homo sapiens) (UniProt O00750); settings: Compound concentration 1000.0 nM
[13] = biological target: 5-hydroxytryptamine receptor 2C (Homo sapiens) (UniProt P28335); settings: Compound concentration 10.0 uM
[14] = biological target: Dual specificity mitogen-activated protein kinase kinase 7 (Homo sapiens) (UniProt O14733); settings: Compound concentration 1000.0 nM
[15] = biological target: Serine/threonine-protein kinase PLK4 (Homo sapiens) (UniProt O00444); settings: Compound concentration 1000.0 nM
[16] = biological target: Insulin-like growth factor 1 receptor (Homo sapiens) (UniProt P08069); settings: Compound concentration 1000.0 nM
[17] = system: Epidermal growth factor receptor (Homo sapiens), P00533 [UNDEFINED MUTATION]; settings: Compound concentration 1000.0 nM
[18] = system: Receptor-type tyrosine-protein kinase FLT3 (Homo sapiens), P36888 [D835V]; settings: Compound concentration 1000.0 nM
[19] = biological target: Serine/threonine-protein kinase RIO1 (Homo sapiens) (UniProt Q9BRS2); settings: Compound concentration 1000.0 nM
Sequence of Serine/threonine-protein kinase RIO1 (Homo sapiens) (Q9BRS2 whole entry): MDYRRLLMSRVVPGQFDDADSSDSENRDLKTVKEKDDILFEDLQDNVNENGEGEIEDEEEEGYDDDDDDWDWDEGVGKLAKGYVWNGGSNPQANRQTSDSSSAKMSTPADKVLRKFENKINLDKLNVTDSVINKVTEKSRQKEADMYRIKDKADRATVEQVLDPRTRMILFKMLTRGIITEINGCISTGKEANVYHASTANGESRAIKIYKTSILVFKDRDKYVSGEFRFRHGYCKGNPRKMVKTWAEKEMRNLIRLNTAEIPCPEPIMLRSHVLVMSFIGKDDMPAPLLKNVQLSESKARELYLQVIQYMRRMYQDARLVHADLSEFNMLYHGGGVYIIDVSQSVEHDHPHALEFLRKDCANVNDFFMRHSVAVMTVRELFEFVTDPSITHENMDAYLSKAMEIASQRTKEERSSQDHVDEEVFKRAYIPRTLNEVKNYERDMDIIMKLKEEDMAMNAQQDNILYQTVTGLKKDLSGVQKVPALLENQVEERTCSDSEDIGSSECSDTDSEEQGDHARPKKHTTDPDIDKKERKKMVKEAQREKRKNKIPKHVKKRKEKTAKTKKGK

[20] = biological target: Serine/threonine-protein kinase PAK 2 (Homo sapiens) (UniProt Q13177); settings: Compound concentration 1000.0 nM
[21] = biological target: Tyrosine-protein kinase Srms (Homo sapiens) (UniProt Q9H3Y6); settings: Compound concentration 1000.0 nM
[22] = biological target: Leukocyte tyrosine kinase receptor (Homo sapiens) (UniProt P29376); settings: Compound concentration 1000.0 nM
[23] = biological target: Calcium/calmodulin-dependent protein kinase type 1B (Homo sapiens) (UniProt Q6P2M8); settings: Compound concentration 1000.0 nM
[24] = biological target: Homeodomain-interacting protein kinase 3 (Homo sapiens) (UniProt Q9H422); settings: Compound concentration 1000.0 nM
[25] = biological target: Protein kinase C delta type (Homo sapiens) (UniProt Q05655); settings: Compound concentration 1000.0 nM
Sequence of Protein kinase C delta type (Homo sapiens) (Q05655 whole entry, looked up): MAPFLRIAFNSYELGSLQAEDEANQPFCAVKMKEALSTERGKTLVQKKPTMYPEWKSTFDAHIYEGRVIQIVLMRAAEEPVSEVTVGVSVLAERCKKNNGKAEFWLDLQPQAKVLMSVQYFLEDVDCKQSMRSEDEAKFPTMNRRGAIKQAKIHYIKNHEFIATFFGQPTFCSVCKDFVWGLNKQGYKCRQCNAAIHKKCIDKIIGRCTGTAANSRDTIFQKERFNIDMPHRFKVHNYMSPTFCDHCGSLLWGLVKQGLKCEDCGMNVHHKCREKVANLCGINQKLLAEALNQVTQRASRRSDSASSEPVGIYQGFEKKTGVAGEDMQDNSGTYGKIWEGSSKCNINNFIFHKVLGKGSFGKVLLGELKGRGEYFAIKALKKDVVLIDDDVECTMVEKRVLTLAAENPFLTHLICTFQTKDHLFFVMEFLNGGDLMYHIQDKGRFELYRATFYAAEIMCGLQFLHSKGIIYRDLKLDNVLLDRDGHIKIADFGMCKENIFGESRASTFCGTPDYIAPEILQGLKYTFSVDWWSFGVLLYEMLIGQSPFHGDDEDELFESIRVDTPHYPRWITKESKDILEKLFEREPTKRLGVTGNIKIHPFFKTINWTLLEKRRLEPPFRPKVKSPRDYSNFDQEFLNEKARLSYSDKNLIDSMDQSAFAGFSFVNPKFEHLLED

[26] = biological target: Fibroblast growth factor receptor 1 (Homo sapiens) (UniProt P11362); settings: Compound concentration 1000.0 nM
[27] = biological target: Serine/threonine-protein kinase BRSK2 (Homo sapiens) (UniProt Q8IWQ3); settings: Compound concentration 1000.0 nM
[28] = biological target: Ribosomal protein S6 kinase alpha-3 (Homo sapiens) (UniProt P51812); settings: Compound concentration 1000.0 nM
[29] = biological target: Beta-adrenergic receptor kinase 1 (Homo sapiens) (UniProt P25098); settings: Compound concentration 1000.0 nM
[30] = biological target: Tyrosine-protein kinase JAK1 (Homo sapiens) (UniProt P23458); settings: Compound concentration 1000.0 nM
Histamine H2 receptor = Histamine H2 receptor (Homo sapiens, UniProt P25021); settings: Compound concentration 10.0 uM
[31] = biological target: Serine/threonine-protein kinase WNK3 (Homo sapiens) (UniProt Q9BYP7); settings: Compound concentration 1000.0 nM
[32] = biological target: Serine/threonine-protein kinase Nek2 (Homo sapiens) (UniProt P51955); settings: Compound concentration 1000.0 nM
[33] = biological target: Ribosomal protein S6 kinase beta-1 (Homo sapiens) (UniProt P23443); settings: Compound concentration 1000.0 nM
[34] = biological target: RAC-gamma serine/threonine-protein kinase (Homo sapiens) (UniProt Q9Y243); settings: Compound concentration 1000.0 nM
[35] = system: Epidermal growth factor receptor (Homo sapiens), P00533 [UNDEFINED MUTATION]; settings: Compound concentration 1000.0 nM; remark: listed apart in the source
[36] = biological target: Protein-tyrosine kinase 2-beta (Homo sapiens) (UniProt Q14289); settings: Compound concentration 1000.0 nM
[37] = biological target: Interleukin-1 receptor-associated kinase 1 (Homo sapiens) (UniProt P51617); settings: Compound concentration 1000.0 nM
Sequence of Interleukin-1 receptor-associated kinase 1 (Homo sapiens) (P51617 whole entry, looked up): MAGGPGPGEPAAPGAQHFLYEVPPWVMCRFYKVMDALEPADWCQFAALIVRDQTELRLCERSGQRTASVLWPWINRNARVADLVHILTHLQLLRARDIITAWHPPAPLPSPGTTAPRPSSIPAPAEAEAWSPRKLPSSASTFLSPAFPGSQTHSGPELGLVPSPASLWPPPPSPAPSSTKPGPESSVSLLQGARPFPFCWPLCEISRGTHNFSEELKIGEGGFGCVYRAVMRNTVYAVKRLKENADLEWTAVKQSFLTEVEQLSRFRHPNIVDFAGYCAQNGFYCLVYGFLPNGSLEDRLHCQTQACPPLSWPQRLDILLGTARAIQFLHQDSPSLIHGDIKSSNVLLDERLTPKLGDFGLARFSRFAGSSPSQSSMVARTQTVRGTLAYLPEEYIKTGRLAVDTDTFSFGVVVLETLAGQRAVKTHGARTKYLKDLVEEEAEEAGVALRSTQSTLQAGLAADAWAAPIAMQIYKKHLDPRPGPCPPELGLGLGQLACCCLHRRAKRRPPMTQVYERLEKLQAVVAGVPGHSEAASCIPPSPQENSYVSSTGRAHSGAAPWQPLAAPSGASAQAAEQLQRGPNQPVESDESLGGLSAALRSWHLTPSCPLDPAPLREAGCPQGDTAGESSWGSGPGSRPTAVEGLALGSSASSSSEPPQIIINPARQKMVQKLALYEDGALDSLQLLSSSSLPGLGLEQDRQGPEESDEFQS

[38] = biological target: Mast/stem cell growth factor receptor Kit (Homo sapiens) (UniProt P10721); settings: Compound concentration 1000.0 nM
[39] = biological target: Bone morphogenetic protein receptor type-2 (Homo sapiens) (UniProt Q13873); settings: Compound concentration 1000.0 nM
[40] = biological target: Tyrosine-protein kinase ZAP-70 (Homo sapiens) (UniProt P43403); settings: Compound concentration 1000.0 nM
[41] = biological target: Dual serine/threonine and tyrosine protein kinase (Homo sapiens) (UniProt Q6XUX3); settings: Compound concentration 1000.0 nM
[42] = biological target: Cyclin-dependent kinase 19 (Homo sapiens) (UniProt Q9BWU1); settings: Compound concentration 1000.0 nM
Sequence of Cyclin-dependent kinase 19 (Homo sapiens) (Q9BWU1 whole entry): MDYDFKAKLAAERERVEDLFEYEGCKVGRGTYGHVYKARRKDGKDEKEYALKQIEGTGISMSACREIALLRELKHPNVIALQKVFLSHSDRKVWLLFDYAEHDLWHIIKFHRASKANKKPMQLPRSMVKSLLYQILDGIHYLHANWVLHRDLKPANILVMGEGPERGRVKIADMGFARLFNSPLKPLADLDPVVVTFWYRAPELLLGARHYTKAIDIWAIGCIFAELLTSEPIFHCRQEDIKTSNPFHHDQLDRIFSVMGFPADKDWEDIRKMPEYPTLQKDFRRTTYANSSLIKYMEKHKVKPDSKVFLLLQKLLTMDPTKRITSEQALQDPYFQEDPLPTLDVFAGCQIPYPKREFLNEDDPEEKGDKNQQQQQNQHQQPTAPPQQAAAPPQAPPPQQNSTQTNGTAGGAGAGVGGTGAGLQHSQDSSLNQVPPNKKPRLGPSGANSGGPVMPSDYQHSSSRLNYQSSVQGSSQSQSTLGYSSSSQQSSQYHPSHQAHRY

[43] = biological target: Receptor tyrosine-protein kinase erbB-2 (Homo sapiens) (UniProt P04626); settings: Compound concentration 1000.0 nM
[44] = biological target: Cyclin-dependent kinase 2 (Homo sapiens) (UniProt P24941); settings: Compound concentration 1000.0 nM

COc1cc(-c2cn([C@H]3CCc4ccccc4N(CC(F)(F)F)C3=O)nn2)ccc1-n1ccc(C)n1
residual activity [1]: 63% | residual activity [2]: 96% | residual activity [3]: 93% | residual activity [4]: 100% | inhibition [5]: -9.73% | residual activity [6]: 100% | residual activity [7]: 100% | residual activity [8]: 100% | residual activity [9]: 100% | residual activity [10]: 82% | residual activity [11]: 100% | residual activity [12]: 100% | inhibition [13]: 16.9% | residual activity [14]: 100% | residual activity [15]: 73% | residual activity [16]: 100% | residual activity [17]: 100% | residual activity [18]: 80% | residual activity [19]: 100% | residual activity [20]: 100% | residual activity [21]: 84% | residual activity [22]: 100% | residual activity [23]: 100% | residual activity [24]: 83% | residual activity [25]: 98% | residual activity [26]: 99% | residual activity [27]: 97% | residual activity [28]: 100% | residual activity [29]: 87% | residual activity [30]: 80% | inhibition (Histamine H2 receptor): 4.13% | residual activity [31]: 100% | residual activity [32]: 100% | residual activity [33]: 100% | residual activity [34]: 89% | residual activity [35]: 100% | residual activity [36]: 100% | residual activity [37]: 100% | residual activity [38]: 100% | residual activity [39]: 100% | residual activity [40]: 82% | residual activity [41]: 100% | residual activity [42]: 72% | residual activity [43]: 100% | residual activity [44]: 100%

COc1cc(-c2cn([C@H]3CCc4c(F)cccc4N(CC(F)(F)F)C3=O)nn2)ccc1-n1cnc(C)c1
residual activity [1]: 81% | residual activity [2]: 100% | residual activity [3]: 100% | residual activity [4]: 100% | inhibition [5]: -8% | residual activity [6]: 100% | residual activity [7]: 100% | residual activity [8]: 94% | residual activity [9]: 100% | residual activity [10]: 100% | residual activity [11]: 100% | residual activity [12]: 100% | inhibition [13]: 27.6% | residual activity [14]: 100% | residual activity [15]: 100% | residual activity [16]: 100% | residual activity [17]: 0% | residual activity [18]: 97% | residual activity [19]: 96% | residual activity [20]: 91% | residual activity [21]: 100% | residual activity [22]: 100% | residual activity [23]: 100% | residual activity [24]: 100% | residual activity [25]: 100% | residual activity [26]: 100% | residual activity [27]: 100% | residual activity [28]: 100% | residual activity [29]: 100% | residual activity [30]: 100% | inhibition (Histamine H2 receptor): 51.8% | residual activity [31]: 100% | residual activity [32]: 100% | residual activity [33]: 100% | residual activity [34]: 100% | residual activity [35]: 100% | residual activity [36]: 100% | residual activity [37]: 100% | residual activity [38]: 100% | residual activity [39]: 100% | residual activity [40]: 100% | residual activity [41]: 100% | residual activity [42]: 97% | residual activity [43]: 100% | residual activity [44]: 100%
